Experimental data: patent publication US20260132140A1, “IMIDAZOLYL-AMINO-PYRAZINE-CARBONITRILS AS CHK-1 INHIBITORS” (BenevolentAI Bio Limited, priority 2022, published 2026)

How the values were obtained:
[1] = biological target: human Chk2 kinase (Homo sapiens, UniProt O96017); test: biochemical
[2] = biological target: T1, human Chk1 kinase (Homo sapiens, UniProt O14757); test: biochemical
T1 sequence (O14757 1-476): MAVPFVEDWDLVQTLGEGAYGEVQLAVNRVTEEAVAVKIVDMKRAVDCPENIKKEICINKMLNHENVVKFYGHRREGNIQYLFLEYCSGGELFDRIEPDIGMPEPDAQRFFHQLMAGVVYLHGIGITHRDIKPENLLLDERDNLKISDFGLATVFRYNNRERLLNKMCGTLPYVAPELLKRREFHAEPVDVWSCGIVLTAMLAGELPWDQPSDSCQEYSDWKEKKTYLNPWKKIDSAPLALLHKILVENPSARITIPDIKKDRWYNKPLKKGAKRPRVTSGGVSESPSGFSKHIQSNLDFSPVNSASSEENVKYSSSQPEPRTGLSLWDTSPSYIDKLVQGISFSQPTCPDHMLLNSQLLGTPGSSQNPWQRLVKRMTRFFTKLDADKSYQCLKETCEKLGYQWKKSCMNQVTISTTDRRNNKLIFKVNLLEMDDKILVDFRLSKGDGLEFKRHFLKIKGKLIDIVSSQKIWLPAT

Chain of human Chk2 kinase (O96017 whole entry): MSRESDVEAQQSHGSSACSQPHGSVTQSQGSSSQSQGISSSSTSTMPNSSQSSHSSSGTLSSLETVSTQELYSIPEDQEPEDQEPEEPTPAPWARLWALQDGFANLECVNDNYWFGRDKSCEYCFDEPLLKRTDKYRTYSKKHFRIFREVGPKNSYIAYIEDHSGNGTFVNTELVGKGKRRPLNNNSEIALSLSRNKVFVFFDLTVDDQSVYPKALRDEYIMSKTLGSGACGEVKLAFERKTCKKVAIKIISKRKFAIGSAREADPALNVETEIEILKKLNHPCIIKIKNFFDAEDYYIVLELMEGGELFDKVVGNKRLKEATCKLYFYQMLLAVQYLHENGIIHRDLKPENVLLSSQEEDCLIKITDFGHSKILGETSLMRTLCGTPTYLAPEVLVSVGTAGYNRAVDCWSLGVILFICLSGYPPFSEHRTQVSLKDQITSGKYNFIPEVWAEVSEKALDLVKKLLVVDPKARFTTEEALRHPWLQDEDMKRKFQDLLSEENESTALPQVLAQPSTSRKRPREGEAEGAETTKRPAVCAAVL

CN(C)CC1CN(c2cccc(-n3cnc(Nc4cnc(C#N)cn4)c3)c2)CCO1 (single isomer, unassigned) [Example 107, 5-((1-(3-(2-((Dimethylamino)methyl)morpholino)phenyl)-1H-imidazol-4-yl)amino)pyrazine-2-carbonitrile]
IC50 [1]: 10000 to 100000 nM | IC50 [2]: 31.6 to 100 nM

CC1(C)CN(C2CCN(c3ccc(-n4cnc(Nc5cnc(C#N)cn5)c4)cc3)C2)C1 (single isomer, unassigned) [Example 123, 5-((1-(4-(3-(3,3-Dimethylazetidin-1-yl)pyrrolidin-1-yl)phenyl)-1H-imidazol-4-yl)amino)pyrazine-2-carbonitrile]
IC50 [1]: > 100000 nM | IC50 [2]: 10 to 31.6 nM

COc1cc(N2C[C@H]3CCN(C)[C@H]3C2)ccc1-n1cnc(Nc2cnc(C#N)cn2)c1 [Example 55, 5-((1-(2-Methoxy-4-((3aR,6aR)-1-methylhexahydropyrrolo[3,4-b]pyrrol-5(1H)-yl)phenyl)-1H-imidazol-4-yl)amino)pyrazine-2-carbonitrile]
IC50 [1]: 10000 to 100000 nM | IC50 [2]: 10 to 31.6 nM

CC(C)(C)N1CC(Oc2ccc(-n3cnc(Nc4cnc(C#N)cn4)c3)cc2)C1 [Example 45, 5-((1-(4-((1-(tert-Butyl)azetidin-3-yl)oxy)phenyl)-1H-imidazol-4-yl)amino)pyrazine-2-carbonitrile]
IC50 [1]: 10000 to 100000 nM | IC50 [2]: 10 to 31.6 nM

CN1C[C@H](OCc2ccc(-n3cnc(Nc4cnc(C#N)cn4)c3)cc2)[C@@H](F)C1 [Example 24, 5-((1-(4-((((3S,4S)-4-Fluoro-1-methylpyrrolidin-3-yl)oxy)methyl)phenyl)-1H-imidazol-4-yl)amino)pyrazine-2-carbonitrile]
IC50 [1]: > 100000 nM | IC50 [2]: 31.6 to 100 nM

COc1cc(CN2CCC(F)(F)CC2)ccc1-n1cnc(Nc2cnc(C#N)cn2)c1 [Example 172, 5-((1-(4-((4,4-Difluoropiperidin-1-yl)methyl)-2-methoxyphenyl)-1H-imidazol-4-yl)amino)pyrazine-2-carbonitrile]
IC50 [1]: 10000 to 100000 nM | IC50 [2]: 31.6 to 100 nM

N#Cc1cnc(Nc2cn(-c3ccc(N4CC[C@@H](N5CCC5)C4)cn3)cn2)cn1 [Example 102, (R)-5-((1-(5-(3-(Azetidin-1-yl)pyrrolidin-1-yl)pyridin-2-yl)-1H-imidazol-4-yl)amino)pyrazine-2-carbonitrile]
IC50 [1]: 1000 to 10000 nM | IC50 [2]: 10 to 31.6 nM

CCN[C@@H]1CCN(c2ccc(-n3cnc(Nc4cnc(C#N)cn4)c3)cc2)C1 [Example 162, (R)-5-((1-(4-(3-(Ethylamino)pyrrolidin-1-yl)phenyl)-1H-imidazol-4-yl)amino)pyrazine-2-carbonitrile]
IC50 [1]: 1000 to 10000 nM | IC50 [2]: < 10 nM

CN(C)[C@@H]1CCN(c2cnc(-n3cnc(Nc4cnc(C#N)cn4)c3)nc2)C1 [Example 82, (R)-5-((1-(5-(3-(Dimethylamino)pyrrolidin-1-yl)pyrimidin-2-yl)-1H-imidazol-4-yl)amino)pyrazine-2-carbonitrile]
IC50 [1]: 1000 to 10000 nM | IC50 [2]: 31.6 to 100 nM

COc1cc(N2CC3(CN(C)C3)C2)ccc1-n1cnc(Nc2cnc(C#N)cn2)c1 [Example 46, 5-((1-(2-Methoxy-4-(6-methyl-2,6-diazaspiro[3.3]heptan-2-yl)phenyl)-1H-imidazol-4-yl)amino)pyrazine-2-carbonitrile]
IC50 [1]: 10000 to 100000 nM | IC50 [2]: 10 to 31.6 nM

CCCN1CC(Oc2cccc(-n3cnc(Nc4cnc(C#N)cn4)c3)c2)C1 [Example 48, 5-((1-(3-((1-Propylazetidin-3-yl)oxy)phenyl)-1H-imidazol-4-yl)amino)pyrazine-2-carbonitrile]
IC50 [1]: > 100000 nM | IC50 [2]: 31.6 to 100 nM

CN1C[C@H]2CN(c3ccc(-n4cnc(Nc5cnc(C#N)cn5)c4)c(F)c3)[C@H]2C1 [Example 81, 5-((1-(2-Fluoro-4-((1S,5R)-3-methyl-3,6-diazabicyclo[3.2.0]heptan-6-yl)phenyl)-1H-imidazol-4-yl)amino)pyrazine-2-carbonitrile]
IC50 [1]: 1000 to 10000 nM | IC50 [2]: 31.6 to 100 nM

CN(C)[C@H]1CN(c2ccc(-n3cnc(Nc4cnc(C#N)cn4)c3)cc2)C[C@H]1F [Example 62, 5-((1-(4-((3S,4R)-3-(Dimethylamino)-4-fluoropyrrolidin-1-yl)phenyl)-1H-imidazol-4-yl)amino)pyrazine-2-carbonitrile]
IC50 [1]: 1000 to 10000 nM | IC50 [2]: 10 to 31.6 nM

CN1CC2(CC(Oc3ccc(-n4cnc(Nc5cnc(C#N)cn5)c4)cc3)C2)C1 [Example 178, 5-((1-(4-((2-Methyl-2-azaspiro[3.3]heptan-6-yl)oxy)phenyl)-1H-imidazol-4-yl)amino)pyrazine-2-carbonitrile]
IC50 [1]: 10000 to 100000 nM | IC50 [2]: 31.6 to 100 nM

N#Cc1cnc(Nc2cn(-c3ccc(N4CCC(N5CCC5)C4)cc3)cn2)cn1 (single isomer, unassigned) [Example 114, 5-((1-(4-(3-(Azetidin-1-yl)pyrrolidin-1-yl)phenyl)-1H-imidazol-4-yl)amino)pyrazine-2-carbonitrile]
IC50 [1]: 1000 to 10000 nM | IC50 [2]: < 10 nM

CN1CCOC(c2ccc(-n3cnc(Nc4cnc(C#N)cn4)c3)cc2)C1 (single isomer, unassigned) [Example 105, 5-((1-(4-(4-Methylmorpholin-2-yl)phenyl)-1H-imidazol-4-yl)amino)pyrazine-2-carbonitrile]
IC50 [1]: 10000 to 100000 nM | IC50 [2]: 31.6 to 100 nM

COc1cc(CN2CC[C@@H](F)C2)ccc1-n1cnc(Nc2cnc(C#N)cn2)c1 [Example 169]
IC50 [1]: 10000 to 100000 nM | IC50 [2]: 10 to 31.6 nM

N#Cc1cnc(Nc2cn(-c3ccc(CN4CCOCC4)cc3)cn2)cn1 [Example 142, 5-((1-(4-(Morpholinomethyl)phenyl)-1H-imidazol-4-yl)amino)pyrazine-2-carbonitrile]
IC50 [1]: 10000 to 100000 nM | IC50 [2]: 100 to 316 nM

CN1C[C@@H]2CC[C@H]1CN2c1ccc(-n2cnc(Nc3cnc(C#N)cn3)c2)cc1 [Example 42, 5-((1-(4-((1S,4S)-5-Methyl-2,5-diazabicyclo[2.2.2]octan-2-yl)phenyl)-1H-imidazol-4-yl)amino)pyrazine-2-carbonitrile]
IC50 [1]: 10000 to 100000 nM | IC50 [2]: < 10 nM

COc1cc(N2CCN(C)C[C@@H]2C)ccc1-n1cnc(Nc2cnc(C#N)cn2)c1 [Example 31, (S)-5-((1-(4-(2,4-Dimethylpiperazin-1-yl)-2-methoxyphenyl)-1H-imidazol-4-yl)amino)pyrazine-2-carbonitrile]
IC50 [1]: 10000 to 100000 nM | IC50 [2]: 10 to 31.6 nM

N#Cc1cnc(Nc2cn(-c3ccc(CN4CCC(F)CC4)cc3)cn2)cn1 [Example 174, 5-((1-(4-((4-Fluoropiperidin-1-yl)methyl)phenyl)-1H-imidazol-4-yl)amino)pyrazine-2-carbonitrile]
IC50 [1]: 10000 to 100000 nM | IC50 [2]: 31.6 to 100 nM

N#Cc1cnc(Nc2cn(-c3ccc(N4CCN5CCCC5C4)cc3)cn2)cn1 (single isomer, unassigned) [Example 117, 5-((1-(4-(Hexahydropyrrolo[1,2-a]pyrazin-2(1H)-yl)phenyl)-1H-imidazol-4-yl)amino)pyrazine-2-carbonitrile]
IC50 [1]: > 100000 nM | IC50 [2]: 10 to 31.6 nM

C[C@H]1CCN1C1CCN(c2ccc(-n3cnc(Nc4cnc(C#N)cn4)c3)cc2)C1 (single isomer, unassigned) [Example 138]
IC50 [1]: 1000 to 10000 nM | IC50 [2]: < 10 nM

CN1CCC(N(C)c2cccc(-n3cnc(Nc4cnc(C#N)cn4)c3)c2)CC1 [Example 43, 5-((1-(3-(Methyl(1-methylpiperidin-4-yl)amino)phenyl)-1H-imidazol-4-yl)amino)pyrazine-2-carbonitrile]
IC50 [1]: 10000 to 100000 nM | IC50 [2]: 31.6 to 100 nM
